Broadly, the melting point is the temperature of the solid-liquid transition.

Structures are written as SMILES.

The text below walks through data of patent publication US20080221088A1, “3,4-Substituted Thiazoles as Ampk Activators” (priority 2005, published 2008).

Series [1] has as its system AMPK. As to the kind of experiment: AMPK activation potential, cell based ELISA with p-AMPK specific antibody, Hep G2 cells. As to conditions: HepG-2 cells, 24 hours incubation, normalized to metformin at 2 mM as 100%. As for the experimental part:
(§1) AMPK activation potential percentages are obtained by normalizing the values obtained at the concentrations in the range of 2 nM-10 μM with that of metformin by considering the values obtained for metformin at 2 mM concentrations as 100%.
(§2) AMPK activation potential of the compounds of formula (I) was evaluated using a cell based ELISA approach. Skeletal muscle (L6 muscle) and hepatoma (Hep G2) liver cells were cultured for 48 hours prior to drug addition at various concentrations. Twenty four (24) hours later, the cells were fixed and the ELISA plate developed following standard protocol using p-AMPK specific antibody.
(§3) Various cell lines such as HepG2 and L6 were revived from glycerol stocks (ATCC). The cells were maintained in a T 75 culture flask-containing medium (DMEM+10% fetal calf serum). On reaching a confluence of 70 to 80%, the cells was seeded in a 96 well plate at a density of 10×10^3 cells per well in DMEM+10% FCS medium. The plates are then incubated at 37° C. with 5% CO2 for 48 hours. Various concentrations of drugs were prepared in DMSO and diluted to required concentration with the medium and incubated at 37° C. with 5% CO2 for 24 hours. Cells were fixed with 4% formaldehyde in PBS for 30 minutes at 25-35° C. and washed three times with PBS containing 0.1% Triton X-100. Endogenous peroxidase was quenched with 0.6% H2O2 in PBS-T for 30 minutes and washed three times in PBS-T. Then the cells were blocked with 10% FCS in PBS-T for 1 hour. The cells were incubated for 8-12 hours with various concentrations of primary antibody in PBS-T containing 5% BSA at 4° C. The cells were then washed three times with PBS-T for 5 minutes and incubated with secondary antibody (HRP conjugated 1:500 in PBS-T with 5% BSA for 1 hour at 25-35° C. The cells were washed three times with PBS-T for 5 minutes and twice with PBS. The cells were incubated with 100 μl TMB/H2O2 color developing solution for 15 minutes and the reaction was stopped with 50 μl of 1M H2SO4. Then the plate was read at 460 nm using ELISA plate reader.
(§4) (AMPK activation potential percentages are obtained by normalizing the values obtained at 10 μM concentration with that of metformin by considering the values obtained for metformin at 2 mM concentrations as 100%).
(In general: An ELISA detects its analyte on a solid surface through an enzyme-linked reagent.)

The test system of series [2] is AMPK. Briefly: AMPK activation potential, cell based ELISA with p-AMPK specific antibody, L6 muscle cells. As to conditions: 24 hours incubation, normalized to metformin at 2 mM as 100%. As for the experimental part:
as §1, §2, §3, §4

The compound `O=C(Cc1csc(Nc2ccc(Cl)c(C(F)(F)F)c2)n1)Nc1cccnc1` [Example 4-h, 2-[2-(4-Chloro-3-trifluoromethyl-phenylamino)-thiazol-4-yl]-N-pyridin-3-yl-acetamide] displayed a melting point of 191 to 192 °C. Still for that read-out and setting: under `O=C(Cc1csc(Nc2ccc(Cl)c(C(F)(F)F)c2)n1)Nc1ccncc1` [Example 4-d, 2-[2-(4-Chloro-3-trifluoromethyl-phenylamino)-thiazol-4-yl]-N-pyridin-4-yl-acetamide] stands 178 to 180 °C; under `COc1ccc(CNC(=O)Cc2csc(Nc3ccc(Cl)c(C(F)(F)F)c3)n2)cc1` [Example 4-k, 2-[2-(4-Chloro-3-trifluoromethyl-phenylamino)-thiazol-4-yl]-N-(4-methoxy-benzyl)-acetamide], 65 to 70 °C; under `Cc1ccc(Nc2nc(CC(=O)O)cs2)cc1F` [Example 2-e, [2-(3-Fluoro-4-methyl-phenylamino)-thiazol-4-yl]-acetic acid], 147 to 148 °C. The same measure, in the same setting: under `CC(=O)Nc1ccc(NC(=O)Cc2csc(Nc3ccc(Cl)c(C(F)(F)F)c3)n2)cc1` [Example 4-f, N-(4-Acetylamino-phenyl)-2-[2-(4-chloro-3-trifluoromethyl-phenylamino)-thiazol-4-yl]-acetamide] stands 262 to 263 °C; under `CCOC(=O)Cc1csc(Nc2ccc(Br)c(C(F)(F)F)c2)n1` [Example 1-a, [2-(4-Bromo-3-trifluoromethyl-phenylamino)-thiazol-4-yl]-acetic acid ethyl ester], 161 to 164 °C. For `O=C(O)Cc1csc(Nc2ccc(Br)c(C(F)(F)F)c2)n1` [Example 2a, [2-(4-Bromo-3-trifluoromethyl-phenylamino)-thiazol-4-yl]-acetic acid], the “AMPK % activation (at 10 μM) HepG-2 muscle cells” value in the series on AMPK [1] worked out at 91.3%. The “AMPK % activation (at 10 μM) L6 muscle cells” value in the series with AMPK [2] turned out to be 83.4%. `O=C(Cc1csc(Nc2ccc(Cl)c(C(F)(F)F)c2)n1)Nc1ccc(F)cc1` [Example 4-c, 2-[2-(4-Chloro-3-trifluoromethyl-phenylamino)-thiazol-4-yl]-N-(4-fluoro-phenyl)-acetamide] came in with a melting point of 146 to 148 °C. For the compound `O=C(O)Cc1csc(Nc2ccc(F)c(C(F)(F)F)c2)n1` [Example 2-h, [2-(4-Fluoro-3-trifluoromethyl-phenylamino)-thiazol-4-yl]-acetic acid], the melting point fell in the range of 167 to 169 °C. Compound `COc1ccc(NC(=O)Cc2csc(Nc3ccc(Cl)c(C(F)(F)F)c3)n2)cc1` [Example 4-a, 2-[2-(4-Chloro-3-trifluoromethyl-phenylamino)-thiazol-4-yl]-N-(4-methoxy-phenyl)-acetamide] yielded a melting point of 179 to 180 °C. The same measure, in the same setting: the same measure for `O=C(Cc1csc(Nc2ccc(Cl)c(C(F)(F)F)c2)n1)Nc1nccs1` [Example 4-g, 2-[2-(4-Chloro-3-trifluoromethyl-phenylamino)-thiazol-4-yl]-N-thiazol-2-yl-acetamide]: 196 to 198 °C; for `Cc1ccc(Nc2nc(CC(=O)O)cs2)cc1Cl` [Example 2-b, [2-(3-Chloro-4-methyl-phenylamino)-thiazol-4-yl]-acetic acid]: 142 to 144 °C; for `O=C(Cc1csc(Nc2ccc(Cl)c(C(F)(F)F)c2)n1)N1CCSCC1` [Example 4-j, 2-[2-(4-Chloro-3-trifluoromethyl-phenylamino)-thiazol-4-yl]-1-thiomorpholin-4-yl-ethanone]: 185 to 187 °C. As to `CNC(=O)Cc1csc(Nc2ccc(Cl)c(C(F)(F)F)c2)n1` [Example 3, 2-[2-(4-Chloro-3-trifluoromethyl-phenylamino)-thiazol-4-yl]-N-methyl-acetamide], the melting point lay within 148 to 150 °C. The “AMPK % activation (at 10 μM) HepG-2 muscle cells” value with AMPK [1] came to 102.14%. Besides, the “AMPK % activation (at 10 μM) L6 muscle cells” value in the series with AMPK [2] is 101.20%. Regarding `O=C(O)Cc1csc(Nc2ccc(Br)c(F)c2)n1` [Example 2-g, [2-(4-Bromo-3-fluoro-phenylamino)-thiazol-4-yl]-acetic acid], the melting point lay within 176 to 177 °C.

`CSc1ccc(NC(=O)Cc2csc(Nc3ccc(Cl)c(C(F)(F)F)c3)n2)cc1` [Example 4-e, 2-[2-(4-Chloro-3-trifluoromethyl-phenylamino)-thiazol-4-yl]-N-(4-methylsulfanyl-phenyl)-acetamide] displayed a melting point of 151 to 152 °C. For `O=C(O)Cc1csc(Nc2ccc(Cl)c(C(F)(F)F)c2)n1` [Example 2, [2-(4-Chloro-3-trifluoromethyl-phenylamino)-thiazol-4-yl]-acetic acid], in the series on AMPK [1], the “AMPK % activation (at 10 μM) HepG-2 muscle cells” value amounted to 102.69%. For the same compound, the “AMPK % activation (at 10 μM) L6 muscle cells” value with AMPK [2] is listed as 91.56%. The compound `CC(=O)c1ccc(NC(=O)Cc2csc(Nc3ccc(Cl)c(C(F)(F)F)c3)n2)cc1` [Example 4-b, N-(4-Acetyl-phenyl)-2-[2-(4-chloro-3-trifluoromethyl-phenylamino)-thiazol-4-yl]-acetamide] had a melting point of 194 to 195 °C. On to `O=C(O)c1csc(Nc2ccc(Cl)c(C(F)(F)F)c2)n1` [Example 5, 2-(4-Chloro-3-trifluoromethyl-phenylamino)-thiazole-4-carboxylic acid], for which the melting point was in the range of 254 to 256 °C.

Regarding `O=C(Cc1csc(Nc2ccc(Cl)c(C(F)(F)F)c2)n1)Nc1ccc(Cl)c(C(F)(F)F)c1` [Example 4, N-(4-Chloro-3-trifluoromethyl-phenyl)-2-[2-(4-chloro-3-trifluoromethyl-phenylamino)-thiazol-4-yl]-acetamide], the melting point fell in the range of 108 to 112 °C. The same measure, in the same setting: the same measure for `NNC(=O)Cc1csc(Nc2ccc(Cl)c(C(F)(F)F)c2)n1` [Example 3-b, [2-(4-Chloro-3-trifluoromethyl-phenylamino)-thiazol-4-yl]-acetic acid hydrazide]: 115 to 118 °C; for `O=C(Cc1csc(Nc2ccc(Cl)c(C(F)(F)F)c2)n1)N1CCOCC1` [Example 4-i, 2-[2-(4-Chloro-3-trifluoromethyl-phenylamino)-thiazol-4-yl]-1-morpholin-4-yl-ethanone]: 210 to 211 °C; for `CC(C)(CC(=O)O)c1csc(Nc2ccc(Cl)c(C(F)(F)F)c2)n1` [Example 2-j, 3-[2-(4-Chloro-3-trifluoromethyl-phenylamino)-thiazol-4-yl]-3-methyl-butyricacid]: 160 to 165 °C.

Turning to `CCOC(=O)Cc1csc(Nc2ccc(Cl)c(C(F)(F)F)c2)n1` [Example 1, [2-(4-Chloro-3-trifluoromethyl-phenylamino)-thiazol-4-yl]-acetic acid ethyl ester], the melting point was in the range of 150 to 152 °C. In addition, the “AMPK % activation (at 10 μM) HepG-2 muscle cells” value with AMPK [1] came out at 89%. For the same compound, the “AMPK % activation (at 10 μM) L6 muscle cells” value in the series on AMPK [2] was 88.2%. `Cc1ccc(Nc2nc(CC(=O)O)cs2)cc1C(F)(F)F` [Example 2-i, [2-(4-Methyl-3-trifluoromethyl-phenylamino)-thiazol-4-yl]-acetic acid]: the melting point lay in the range of 154 to 155 °C. For the compound `NC(=O)Cc1csc(Nc2ccc(Cl)c(C(F)(F)F)c2)n1` [Example 3c, 2-[2-(4-Chloro-3-trifluoromethyl-phenylamino)-thiazol-4-yl]-acetamide], the melting point fell in the range of 205 to 207 °C. In the series with AMPK [1], the “AMPK % activation (at 10 μM) HepG-2 muscle cells” value came to 102.43%. Further, the “AMPK % activation (at 10 μM) L6 muscle cells” value in the series with AMPK [2] is recorded as 88.1%.
